Assay results from ChEMBL document CHEMBL1201862, “PubChem BioAssay data set” (2004).
Values belong to the compound of their own block, whether it stands above or below them. Active and inactive are the calls of the source.

How the values were obtained:
[1] = biological target: T1, Sentrin-specific protease 1 (Homo sapiens, UniProt Q9P0U3); assay: Dose response confirmation of small molecule inhibitors of the catalytic domain of the SUMO protease, SENP1 in a FRET assay.; assay type: functional; conditions: read-out: IC50_Mean
T1 sequence (Q9P0U3 whole entry): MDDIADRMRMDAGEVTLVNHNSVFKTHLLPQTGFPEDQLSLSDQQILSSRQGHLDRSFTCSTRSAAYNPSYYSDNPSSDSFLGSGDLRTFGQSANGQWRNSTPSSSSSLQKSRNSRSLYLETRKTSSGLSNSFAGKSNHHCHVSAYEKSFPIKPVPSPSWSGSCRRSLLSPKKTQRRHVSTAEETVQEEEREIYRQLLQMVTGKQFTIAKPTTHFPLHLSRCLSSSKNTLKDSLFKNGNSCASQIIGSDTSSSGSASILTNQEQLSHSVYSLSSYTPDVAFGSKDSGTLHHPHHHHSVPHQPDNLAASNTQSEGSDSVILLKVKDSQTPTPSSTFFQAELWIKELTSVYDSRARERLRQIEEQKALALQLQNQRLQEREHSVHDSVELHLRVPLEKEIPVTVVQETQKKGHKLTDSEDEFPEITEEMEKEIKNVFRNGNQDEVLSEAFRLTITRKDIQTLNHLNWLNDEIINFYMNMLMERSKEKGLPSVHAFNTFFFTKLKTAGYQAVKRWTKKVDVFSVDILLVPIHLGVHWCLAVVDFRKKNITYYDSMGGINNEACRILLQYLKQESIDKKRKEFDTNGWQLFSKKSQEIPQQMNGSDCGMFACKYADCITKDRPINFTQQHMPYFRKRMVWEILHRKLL

[2] = biological target: T1, Sentrin-specific protease 1; assay: SENP1 catalytic domain blockers, concentration series – biochemical, kinetic FRET, dose response (AID 651697); assay type: functional; conditions: read-out: IC50_Mean
[3] = Counterscreen for IDE inhibitors: Luminescence-based cell-based high throughput dose response assay to identify compounds that are cytotoxic to HEK cells. [Related pubchem assays: 434962 (Primary screen (IDE inhibitors in singlicate)), 449730 (Counterscreen (Cytotoxicity in triplicate)), 435028 (Confirmation (IDE inhibitors in triplicate)) …; assay type: functional; conditions: HEK293
[4] = biological target: T2, Insulin-degrading enzyme (Homo sapiens, UniProt P14735); assay: Dose Response: Fluorescence polarization-based cell-based high throughput dose response assay for inhibitors of insulin-degrading enzyme (IDE). [Related pubchem assays: 434962 (Primary screen (IDE inhibitors in singlicate)), 449730 (Counterscreen (Cytotoxicity in triplicate)), 435028 (Confirmation (IDE inhibitors in triplicate)), 434984 (Summary …; assay type: functional
T2 sequence (P14735 whole entry): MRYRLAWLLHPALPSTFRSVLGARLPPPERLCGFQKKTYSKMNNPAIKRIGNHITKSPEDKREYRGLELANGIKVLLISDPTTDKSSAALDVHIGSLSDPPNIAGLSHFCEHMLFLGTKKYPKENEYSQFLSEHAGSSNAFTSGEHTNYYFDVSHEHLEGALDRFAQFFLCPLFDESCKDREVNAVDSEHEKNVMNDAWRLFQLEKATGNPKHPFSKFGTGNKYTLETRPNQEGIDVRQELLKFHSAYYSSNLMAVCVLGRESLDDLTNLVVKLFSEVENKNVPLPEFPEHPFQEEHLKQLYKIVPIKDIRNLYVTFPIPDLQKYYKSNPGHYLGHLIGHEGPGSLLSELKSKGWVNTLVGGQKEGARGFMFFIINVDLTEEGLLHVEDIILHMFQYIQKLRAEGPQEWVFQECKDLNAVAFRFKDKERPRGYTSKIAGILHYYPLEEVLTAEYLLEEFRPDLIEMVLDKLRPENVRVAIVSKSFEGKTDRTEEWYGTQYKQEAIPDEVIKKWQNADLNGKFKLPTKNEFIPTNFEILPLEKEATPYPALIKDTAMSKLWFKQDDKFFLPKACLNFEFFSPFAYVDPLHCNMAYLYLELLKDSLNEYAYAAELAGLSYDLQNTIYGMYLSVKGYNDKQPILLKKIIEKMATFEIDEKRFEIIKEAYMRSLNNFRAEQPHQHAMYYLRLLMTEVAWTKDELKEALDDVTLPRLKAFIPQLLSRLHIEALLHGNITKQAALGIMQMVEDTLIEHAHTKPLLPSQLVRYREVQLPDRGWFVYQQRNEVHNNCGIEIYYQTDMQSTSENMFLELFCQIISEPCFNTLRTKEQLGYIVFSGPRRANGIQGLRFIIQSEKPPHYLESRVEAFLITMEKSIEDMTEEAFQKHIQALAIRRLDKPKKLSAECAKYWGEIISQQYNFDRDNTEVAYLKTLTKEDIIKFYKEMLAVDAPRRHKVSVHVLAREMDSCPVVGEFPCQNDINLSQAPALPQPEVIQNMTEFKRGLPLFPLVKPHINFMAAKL

[5] = biological target: Beta-galactosidase (Escherichia coli, UniProt Q8VNN2); assay: Dose response counterscreen for EBI2 assay utilizing the enzyme, b-galactosidase.; assay type: functional
[6] = biological target: T3, Aminopeptidase N (Plasmodium falciparum FcB1/Columbia, UniProt O96935); assay: malaria alanyl aminopeptidase activity blockers – biochemical, fluorogenic H-Leu-NHMec substrate, 1536-well (AID 1445); parameters: species or system Plasmodium falciparum 3D7, 3D7
T3 sequence (O96935 whole entry): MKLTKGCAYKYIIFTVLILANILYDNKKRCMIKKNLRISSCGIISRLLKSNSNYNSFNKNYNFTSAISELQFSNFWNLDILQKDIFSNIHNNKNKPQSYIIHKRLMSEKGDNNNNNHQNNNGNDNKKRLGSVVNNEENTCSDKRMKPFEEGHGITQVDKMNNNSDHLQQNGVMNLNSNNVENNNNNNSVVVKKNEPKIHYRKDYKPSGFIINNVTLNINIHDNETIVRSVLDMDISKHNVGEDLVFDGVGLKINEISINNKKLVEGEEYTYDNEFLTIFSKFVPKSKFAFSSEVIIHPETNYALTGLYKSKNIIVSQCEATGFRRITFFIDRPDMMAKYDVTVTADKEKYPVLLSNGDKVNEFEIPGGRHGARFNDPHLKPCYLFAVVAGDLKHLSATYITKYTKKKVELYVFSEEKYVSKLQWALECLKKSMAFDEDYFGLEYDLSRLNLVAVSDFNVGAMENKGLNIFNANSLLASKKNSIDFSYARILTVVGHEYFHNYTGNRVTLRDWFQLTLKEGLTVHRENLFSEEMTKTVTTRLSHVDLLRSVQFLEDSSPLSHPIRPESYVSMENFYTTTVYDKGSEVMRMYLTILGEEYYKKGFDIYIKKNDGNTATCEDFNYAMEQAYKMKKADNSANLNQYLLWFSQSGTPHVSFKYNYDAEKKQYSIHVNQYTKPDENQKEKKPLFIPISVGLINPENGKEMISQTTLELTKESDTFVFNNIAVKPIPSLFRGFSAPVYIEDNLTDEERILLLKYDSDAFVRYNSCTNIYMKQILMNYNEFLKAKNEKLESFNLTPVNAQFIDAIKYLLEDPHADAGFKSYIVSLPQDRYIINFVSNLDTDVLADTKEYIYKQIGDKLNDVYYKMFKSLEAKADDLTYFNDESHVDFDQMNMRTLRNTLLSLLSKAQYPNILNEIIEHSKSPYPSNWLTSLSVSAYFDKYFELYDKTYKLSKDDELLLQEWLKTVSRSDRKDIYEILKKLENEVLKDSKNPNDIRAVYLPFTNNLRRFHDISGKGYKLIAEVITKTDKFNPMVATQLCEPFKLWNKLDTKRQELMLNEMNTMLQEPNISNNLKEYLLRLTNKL

[7] = biological target: Histone-lysine N-methyltransferase NSD2 (Homo sapiens, UniProt O96028); assay type: biochemical
[8] = biological target: T4, Carboxy-terminal domain RNA polymerase II polypeptide A small phosphatase 1 (Homo sapiens, UniProt Q9GZU7); assay: CTDSP1 inhibitors, concentration-response, biochemical, absorbance readout, ultra-high-throughput screen actives (AID 540297); assay type: functional
T4 sequence (Q9GZU7 whole entry): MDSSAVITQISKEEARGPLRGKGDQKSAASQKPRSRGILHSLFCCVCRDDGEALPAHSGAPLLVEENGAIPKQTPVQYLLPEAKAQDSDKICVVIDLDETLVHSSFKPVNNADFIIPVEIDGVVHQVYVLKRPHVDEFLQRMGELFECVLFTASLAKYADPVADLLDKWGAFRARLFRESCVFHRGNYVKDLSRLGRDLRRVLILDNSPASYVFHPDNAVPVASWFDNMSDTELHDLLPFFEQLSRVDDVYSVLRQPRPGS

Beta-galactosidase, sequence (Q8VNN2 whole entry): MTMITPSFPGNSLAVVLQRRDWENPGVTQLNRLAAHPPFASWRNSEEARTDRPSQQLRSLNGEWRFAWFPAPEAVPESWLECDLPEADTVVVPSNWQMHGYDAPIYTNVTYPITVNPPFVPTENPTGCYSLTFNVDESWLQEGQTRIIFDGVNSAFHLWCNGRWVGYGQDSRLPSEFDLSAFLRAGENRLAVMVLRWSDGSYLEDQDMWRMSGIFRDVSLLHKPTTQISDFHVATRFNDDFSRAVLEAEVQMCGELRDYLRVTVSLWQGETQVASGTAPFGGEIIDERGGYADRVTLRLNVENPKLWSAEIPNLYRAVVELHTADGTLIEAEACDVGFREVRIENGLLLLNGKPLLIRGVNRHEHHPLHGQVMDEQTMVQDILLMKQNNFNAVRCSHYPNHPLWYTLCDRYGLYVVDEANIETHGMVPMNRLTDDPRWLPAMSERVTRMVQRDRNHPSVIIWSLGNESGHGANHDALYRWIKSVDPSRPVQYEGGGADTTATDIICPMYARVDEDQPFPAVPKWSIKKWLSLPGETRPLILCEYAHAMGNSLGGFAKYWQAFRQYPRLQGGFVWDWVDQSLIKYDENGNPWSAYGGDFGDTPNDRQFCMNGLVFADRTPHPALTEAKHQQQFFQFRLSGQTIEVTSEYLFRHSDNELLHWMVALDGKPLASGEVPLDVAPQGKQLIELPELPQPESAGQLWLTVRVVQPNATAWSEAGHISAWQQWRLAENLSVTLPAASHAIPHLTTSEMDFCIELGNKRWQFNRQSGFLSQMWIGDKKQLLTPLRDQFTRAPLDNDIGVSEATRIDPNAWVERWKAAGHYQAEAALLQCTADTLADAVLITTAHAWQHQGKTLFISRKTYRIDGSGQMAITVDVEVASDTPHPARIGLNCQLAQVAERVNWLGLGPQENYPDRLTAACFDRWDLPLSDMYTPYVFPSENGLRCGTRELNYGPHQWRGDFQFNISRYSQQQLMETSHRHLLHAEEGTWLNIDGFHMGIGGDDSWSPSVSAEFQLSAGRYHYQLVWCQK
Histone-lysine N-methyltransferase NSD2, sequence (O96028 whole entry, the tested form may be a part): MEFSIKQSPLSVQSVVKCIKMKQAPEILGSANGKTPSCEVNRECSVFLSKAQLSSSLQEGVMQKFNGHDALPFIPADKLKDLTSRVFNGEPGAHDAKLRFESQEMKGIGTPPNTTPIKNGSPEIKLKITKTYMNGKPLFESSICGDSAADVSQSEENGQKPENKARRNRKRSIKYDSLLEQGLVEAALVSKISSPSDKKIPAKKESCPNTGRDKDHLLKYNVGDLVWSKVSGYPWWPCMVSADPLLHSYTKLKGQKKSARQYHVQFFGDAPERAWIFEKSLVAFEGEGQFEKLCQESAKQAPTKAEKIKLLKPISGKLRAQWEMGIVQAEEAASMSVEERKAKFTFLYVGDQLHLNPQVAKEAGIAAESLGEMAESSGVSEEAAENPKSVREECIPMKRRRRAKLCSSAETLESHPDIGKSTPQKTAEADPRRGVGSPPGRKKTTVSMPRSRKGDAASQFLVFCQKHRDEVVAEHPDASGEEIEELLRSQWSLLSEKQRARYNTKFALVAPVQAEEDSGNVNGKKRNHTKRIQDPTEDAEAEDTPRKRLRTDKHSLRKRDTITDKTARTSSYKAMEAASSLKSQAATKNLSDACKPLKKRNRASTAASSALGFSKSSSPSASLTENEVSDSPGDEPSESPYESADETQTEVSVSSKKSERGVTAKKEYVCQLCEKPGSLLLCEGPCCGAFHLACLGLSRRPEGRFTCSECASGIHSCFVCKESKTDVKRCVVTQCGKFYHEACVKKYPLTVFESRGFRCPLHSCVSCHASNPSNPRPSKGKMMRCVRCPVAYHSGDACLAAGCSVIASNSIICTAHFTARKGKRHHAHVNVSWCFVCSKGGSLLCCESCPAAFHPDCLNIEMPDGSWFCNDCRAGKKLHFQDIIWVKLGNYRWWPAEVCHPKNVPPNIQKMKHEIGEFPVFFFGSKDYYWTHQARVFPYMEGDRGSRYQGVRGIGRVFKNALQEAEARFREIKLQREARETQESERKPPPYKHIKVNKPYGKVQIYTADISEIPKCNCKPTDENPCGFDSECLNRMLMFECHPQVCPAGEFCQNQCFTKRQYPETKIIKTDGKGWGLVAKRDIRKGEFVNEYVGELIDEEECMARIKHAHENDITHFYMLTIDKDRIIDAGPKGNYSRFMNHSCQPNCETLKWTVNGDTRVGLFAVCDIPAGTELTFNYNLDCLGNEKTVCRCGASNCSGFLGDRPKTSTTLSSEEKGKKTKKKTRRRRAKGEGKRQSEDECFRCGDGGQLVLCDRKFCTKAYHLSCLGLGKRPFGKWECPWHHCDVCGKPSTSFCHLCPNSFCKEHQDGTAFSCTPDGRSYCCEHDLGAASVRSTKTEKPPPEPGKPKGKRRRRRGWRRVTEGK

IC50 [1]: 4.36 µM (active)
IC50 [2]: 8.62 µM (active)
SMILES: COc1ccc([C@H]2CC(=O)C=C(c3cccc(Cl)c3O)C2)cc1OC

SMILES: CCOc1cc(Br)cc(/C=C2\SC(Nc3ccccc3)=NC2=O)c1O
IC50 [3]: 35.1 µM (not active)
IC50 [1]: 1.18 µM (active)
IC50 [2]: 5.76 µM (active)
IC50 [4]: 12.7 µM (not active)

IC50 [5]: > 80 µM (inactive)
SMILES: O=C(/C=C/c1ccc(F)cc1)N1CCN(c2ncccn2)CC1

IC50 [6]: 42.1 µM (active)
AC50 [7]: 14.1 µM (active)
IC50 [8]: 7.47 µM (active)
SMILES: Cc1ccc(S(=O)(=O)NC2=NC(=O)/C(=C/c3ccc(Br)o3)S2)cc1
